# According to US8501794B2, “Compounds as cannabinoid receptor ligands” (priority 2007, dated 2013):
# Legend:
# rat CB2 [1] = molecular target: T1, rat CB2 (Rattus norvegicus, UniProt Q9QZN9); test: rat CB2 cyclase functional assay (HitHunter cAMP, HEK cells); type: cell-based; design: expressed in transfected cells; host or cells: HEK; details: forskolin 18 μM
# T1 sequence (Q9QZN9 1-360): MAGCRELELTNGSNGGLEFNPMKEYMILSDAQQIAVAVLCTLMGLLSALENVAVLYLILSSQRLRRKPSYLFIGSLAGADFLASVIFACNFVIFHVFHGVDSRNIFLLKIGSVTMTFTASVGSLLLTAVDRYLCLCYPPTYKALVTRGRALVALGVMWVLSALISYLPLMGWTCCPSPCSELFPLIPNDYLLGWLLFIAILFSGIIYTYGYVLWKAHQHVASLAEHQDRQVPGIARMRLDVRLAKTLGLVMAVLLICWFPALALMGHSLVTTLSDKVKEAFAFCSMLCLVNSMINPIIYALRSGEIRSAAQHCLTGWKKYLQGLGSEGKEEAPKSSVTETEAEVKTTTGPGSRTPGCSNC
# rat CB2 [2] = molecular target: T1, rat CB2; test: rat CB2 radioligand binding assay ([3H]CP-55,940 competition); design: expressed in transfected cells; host or cells: HEK293
# human CB2 receptors = molecular target: T2, human CB2 receptors (Homo sapiens, UniProt P34972); test: human CB2 radioligand binding assay ([3H]CP-55,940 competition)
# T2 construct: expressed in transfected cells; host or cells: HEK293
# T2 sequence (P34972 whole entry): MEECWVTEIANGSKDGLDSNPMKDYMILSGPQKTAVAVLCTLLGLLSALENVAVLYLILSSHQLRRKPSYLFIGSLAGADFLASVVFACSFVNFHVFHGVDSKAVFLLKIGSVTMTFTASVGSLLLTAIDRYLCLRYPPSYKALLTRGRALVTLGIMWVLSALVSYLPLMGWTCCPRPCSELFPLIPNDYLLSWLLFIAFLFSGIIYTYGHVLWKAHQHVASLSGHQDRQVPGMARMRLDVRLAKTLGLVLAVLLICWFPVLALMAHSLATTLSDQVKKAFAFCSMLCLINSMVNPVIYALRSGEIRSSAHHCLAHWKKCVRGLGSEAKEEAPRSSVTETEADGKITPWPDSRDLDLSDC
SMILES,EC50 (rat CB2 [1]) [nM],Ki (rat CB2 [2]) [nM],Ki (human CB2 receptors) [nM]
"CCCCc1cn(C(C)(C)C)s/c1=N\C(=O)c1cc(C(F)(F)F)ccc1OC[C@@H]1COC(=O)N1 [Example 195, N-[(5Z)-4-butyl-2-tert-butylisothiazol-5(2H)-ylidene]-2-{[(4R)-2-oxo-1,3-oxazolidin-4-yl]methoxy}-5-(trifluoromethyl)benzamide]",1.4,7.6,16
CCCCc1cn(C(C)(C)C)s/c1=N\C(=NC#N)c1cc(C(F)(F)F)ccc1OC[C@@H]1CCCN1C [Example 193],2.7,97,37
"COc1ccc(Cl)cc1C(=NC#N)/N=c1\sn(C(C)(C)C)cc1CCCC#N [Example 128, N-[(5Z)-2-tert-butyl-4-(3-cyanopropyl)isothiazol-5(2H)-ylidene]-5-chloro-N′-cyano-2-methoxybenzenecarboximidamide]",0.26,5.8,15
"COc1ccc(C(F)(F)F)cc1C(=O)/N=c1\sn(C(C)(C)C)cc1CCCC(C)(C)O [Example 81, N-[(5Z)-2-tert-butyl-4-(4-hydroxy-4-methylpentyl)isothiazol-5(2H)-ylidene]-2-methoxy-5-(trifluoromethyl)benzamide]",0.061,2.6,45
"CCCCc1cn(C(C)(C)C)s/c1=N\C(=O)C1(C)CCC(C(=O)O)C1(C)C (stereo not drawn) [Example 96, 3-({[(5Z)-4-butyl-2-tert-butylisothiazol-5(2H)-ylidene]amino}carbonyl)-2,2,3-trimethylcyclopentanecarboxylic acid]",1.4,27,20
"CCOc1ccc(C(F)(F)F)cc1C(=O)/N=c1\sn(C(C)(C)C)cc1CC(C)C [Example 146, N-[(5Z)-2-tert-butyl-4-isobutylisothiazol-5(2H)-ylidene]-2-ethoxy-5-(trifluoromethyl)benzamide]",0.29,3.1,24
"CCCCc1cn(C(C)(C)C)s/c1=N\C(=O)c1cc(Cl)ccc1OC [Example 1, N-[(5Z)-4-butyl-2-tert-butylisothiazol-5(2H)-ylidene]-5-chloro-2-methoxybenzamide]",0.72,1.5,16
"CCCCc1cn(C(C)(C)C)s/c1=N\C(=O)NC1CCC(C)CC1 (stereo not drawn) [Example 191, N-[(5Z)-4-butyl-2-tert-butylisothiazol-5(2H)-ylidene]-N′-(4-methylcyclohexyl)urea]",0.51,1.8,15
"COc1ccc(C#N)cc1C(=O)/N=c1\sn(C(C)(C)C)cc1CC(C)C [Example 145, N-[(5Z)-2-tert-butyl-4-isobutylisothiazol-5(2H)-ylidene]-5-cyano-2-methoxybenzamide]",0.078,6.1,58
"CCCCc1cn(C(C)(C)C)s/c1=N\C(=O)c1cc(Cl)ccc1OCCF [Example 139, N-[(5Z)-4-butyl-2-tert-butylisothiazol-5(2H)-ylidene]-5-chloro-2-(2-fluoroethoxy)benzamide]",0.059,2,5.5
"COc1ccc(Cl)cc1C(=O)/N=c1\sn(C(C)(C)C)cc1CC1CCC1 [Example 38, N-[(5Z)-2-tert-butyl-4-(cyclobutylmethyl)isothiazol-5(2H)-ylidene]-5-chloro-2-methoxybenzamide]",1.7,0.61,2.5
"CC(C)(C)n1cc(CCCC#N)/c(=N/C(=O)c2cc(Cl)ccc2OCC(F)(F)F)s1 [Example 133, N-[(5Z)-2-tert-butyl-4-(3-cyanopropyl)isothiazol-5(2H)-ylidene]-5-chloro-2-(2,2,2-trifluoroethoxy)benzamide]",1.4,1.1,15
"CCCCc1cn(C(C)(C)C)s/c1=N\C(=O)[C@@]1(C)CC[C@@H](C(=O)NCC(F)(F)F)C1(C)C [Example 240, (1S,3R)—N^1-[(5Z)-4-butyl-2-tert-butylisothiazol-5(2H)-ylidene]-1,2,2-trimethyl-N^3-(2,2,2-trifluoroethyl)cyclopentane-1,3-dicarboxamide]",2.5,156,100
"COc1ccc(Cl)cc1C(=O)/N=c1\sn(C(C)(C)C)cc1CC1CCCC1 [Example 136, N-[(5Z)-2-tert-butyl-4-(cyclopentylmethyl)isothiazol-5(2H)-ylidene]-5-chloro-2-methoxybenzamide]",0.051,0.51,1.9
"COc1ccc(Cl)cc1C(=O)/N=c1\sn(C(C)(C)C)cc1CC1OCCO1 [Example 22, N-[(5Z)-2-tert-butyl-4-(1,3-dioxolan-2-ylmethyl)isothiazol-5(2H)-ylidene]-5-chloro-2-methoxybenzamide]",0.24,6.2,67
"CCCCc1cn(C(C)(C)C)s/c1=N\S(=O)(=O)c1cccc(Cl)c1Cl [Example 122, N-[(5Z)-4-butyl-2-tert-butylisothiazol-5(2H)-ylidene]-2,3-dichlorobenzenesulfonamide]",1.9,11,18
"CCCCc1cn(C(C)(C)C)s/c1=N\C(=O)[C@@H]1CC[C@](C)(C(=O)NC)C1(C)C [Example 209, (1S,3R)—N^3-[(5Z)-4-butyl-2-tert-butylisothiazol-5(2H)-ylidene]-N^1,1,2,2-tetramethylcyclopentane-1,3-dicarboxamide]",0.44,7.3,12
"CCCCc1cn(C(C)(C)C)s/c1=N\C(=O)C12CC3CC(CC(C3)C1)C2 [Example 123, N-[(5Z)-4-butyl-2-tert-butylisothiazol-5(2H)-ylidene]adamantane-1-carboxamide]",0.13,0.17,0.31
"COc1ccc(Cl)cc1C(=O)/N=c1\sn(C(C)(C)C)cc1CC(C)C [Example 37, N-[(5Z)-2-tert-butyl-4-isobutylisothiazol-5(2H)-ylidene]-5-chloro-2-methoxybenzamide]",1.3,5.8,31
"COc1ccc(Cl)cc1C(=O)/N=c1\sn(C(C)(C)C)cc1CCCC(C)=O [Example 75, N-[(5Z)-2-tert-butyl-4-(4-oxopentyl)isothiazol-5(2H)-ylidene]-5-chloro-2-methoxybenzamide]",0.29,4,31
"CC(C)Cc1cn(C(C)(C)C)s/c1=N\C(=O)c1cc(Cl)ccc1OCCF [Example 144, N-[(5Z)-2-tert-butyl-4-isobutylisothiazol-5(2H)-ylidene]-5-chloro-2-(2-fluoroethoxy)benzamide]",0.1,1.2,8.8
"CCCCc1cn(C(C)(C)CF)s/c1=N\C(=O)c1cc(C(F)(F)F)ccc1OC [Example 152, N-[(5Z)-4-butyl-2-(2-fluoro-1,1-dimethylethyl)isothiazol-5(2H)-ylidene]-2-methoxy-5-(trifluoromethyl)benzamide]",0.071,0.79,5.1
"CCCCc1cn(C(C)(C)C)s/c1=N\C(=O)c1cc(C)ccc1OC [Example 43, N-[(5Z)-4-butyl-2-tert-butylisothiazol-5(2H)-ylidene]-2-methoxy-5-methylbenzamide]",0.23,2.6,18
